Structures are written as SMILES.

In the first assay the target is T1, human CCR10 (Homo sapiens, UniProt P46092).
T1 construct: expressed in transfected cells; host or cells: KJMGER8 cell (cell line derived from Namalwa cell); expression induced with 10 nmol/L β-estradiol
T1 sequence (P46092 1-362): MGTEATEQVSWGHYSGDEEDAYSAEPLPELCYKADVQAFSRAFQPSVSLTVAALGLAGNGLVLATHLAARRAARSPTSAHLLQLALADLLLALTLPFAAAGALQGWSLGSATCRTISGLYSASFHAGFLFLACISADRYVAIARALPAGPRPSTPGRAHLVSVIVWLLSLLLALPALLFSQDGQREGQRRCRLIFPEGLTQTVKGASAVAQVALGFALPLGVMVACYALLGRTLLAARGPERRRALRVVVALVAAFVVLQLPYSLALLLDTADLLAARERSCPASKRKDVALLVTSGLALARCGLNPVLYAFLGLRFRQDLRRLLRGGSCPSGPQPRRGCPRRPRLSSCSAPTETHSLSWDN
The assay can be described thus: Calcium assay of human CCR10 (inhibition of CTACK-induced increase in intracellular calcium ion concentration in hCCR10G16 cells). The settings on record: test compound 100 nmol/L; human recombinant CTACK; hCCR10G16 cells (KJMGER8/Namalwa-derived, Gα16 co-expressed); FLIPR or FDSS. Type of assay: cell-based. The method in brief:
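KJMGER8-derived hCCR10G16 cells (human CCR10 plus Gα16, expression induced 24 h with 10 nmol/L β-estradiol) were dye-loaded and preincubated with compound for 30 min at 37 °C, then stimulated with CTACK (300 nmol/L stock). Calcium flux over ~5 min (max−min fluorescence) gave percent inhibition versus DMSO control.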
For the compound `Cc1cc(F)ccc1Nc1c(C(=O)N2CCC(c3ccccc3)CC2)cnc2c(S(=O)(=O)N=CN(C)C)cnn12` [a-73, N-[7-(4-Fluoro-2-methylphenylamino)-6-(4-phenylpiperidine-1-carbonyl)pyrazolo[1,5-a]pyrimidin-3-ylsulfonyl]-N,N-dimethylformimidamide], the “Inhibitory rate (%) for an increase in calcium ion concentration” value is recorded as 68.9%.

Still in this assay, the particulars now being: test compound 100 nmol/L; human recombinant CTACK; hCCR10G16 cells (KJMGER8/Namalwa-derived, Gα16 co-expressed); FLIPR or FDSS; read-out: Inhibitory rate (%) for an increase in calcium ion concentration.
With `CCC(=O)NS(=O)(=O)c1cnn2c(Nc3cc(C)ccc3Cl)c(C(=O)N3CCC4(CC3)OCc3ccccc34)cnc12` [a-56, N-{7-(2-Chloro-5-methylphenylamino)-6-[3H-spiro(isobenzofuran-1,4′-piperidine)-1′-carbonyl]pyrazolo[1,5-a]pyrimidin-3-ylsulfonyl}propionamide], the inhibition at 0.1 µM was above 100%.
`Cc1ccc(Cl)c(Nc2c(C(=O)N3CCC4(CC3)OCc3ccccc34)cnc3c(S(=O)(=O)NC(=O)C4CCC4)cnn23)c1` [a-57, N-{7-(2-Chloro-5-methylphenylamino)-6-[3H-spiro(isobenzofuran-1,4′-piperidine)-1′-carbonyl]pyrazolo[1,5-a]pyrimidin-3-ylsulfonyl}cyclobutanecarboxamide]: the inhibition at 0.1 µM was above 100%.
`Cc1ccc(Cl)c(Nc2c(C(=O)N3CCC4(CC3)OCc3ccccc34)cnc3c(S(=O)(=O)NC(=O)C4(C)COC4)cnn23)c1` [a-58, N-{7-(2-Chloro-5-methylphenylamino)-6-[3H-spiro(isobenzofuran-1,4′-piperidine)-1′-carbonyl]pyrazolo[1,5-a]pyrimidin-3-ylsulfonyl}-3-methyloxetane-3-carboxamide]: the inhibition at 0.1 µM was above 100%.
On the same count and under the same terms, then `CCC(=O)NS(=O)(=O)c1cnn2c(Nc3cc(C)ccc3Cl)c(C(=O)N3CC4(C3)CN(c3ccc(F)cc3)C4)cnc12` [a-60, N-{7-(2-Chloro-5-methylphenylamino)-6-[6-(4-fluorophenyl)-2,6-diazaspiro[3,3]heptane-2-carbonyl]pyrazolo[1,5-a]pyrimidin-3-ylsulfonyl}propionamide], with 90.2%; and `CCNC(=O)NS(=O)(=O)c1cnn2c(Nc3cc(C)ccc3Cl)c(C(=O)N3CC4(C3)CN(c3ccc(F)cc3)C4)cnc12` [a-61, 7-(2-Chloro-5-methylphenylamino)-N-(ethylcarbamoyl)-6-[6-(4-fluorophenyl)-2,6-diazaspiro[3,3]heptane-2-carbonyl]pyrazolo[1,5-a]pyrimidine-3-sulfonamide], with 24.3%.
On the same count and under the same terms, then `CCN(CC)S(=O)(=O)c1cnn2c(Nc3ccc(F)cc3C)c(C(=O)N3CCC(c4ccccc4)CC3)cnc12` [a-62, N,N-Diethyl-7-(4-fluoro-2-methylphenylamino)-6-(4-phenylpiperidine-1-carbonyl)pyrazolo[1,5-a]pyrimidine-3-sulfonamide], with above 100%; and `CNCC(=O)NS(=O)(=O)c1cnn2c(Nc3ccc(F)cc3C)c(C(=O)N3CCC(c4ccccc4)CC3)cnc12` [a-63, N-[7-(4-Fluoro-2-methylphenylamino)-6-(4-phenylpiperidine-1-carbonyl)pyrazolo[1,5-a]pyrimidin-3-ylsulfonyl]-2-methylaminoacetamide], with 58.8%; and `COCC(=O)NS(=O)(=O)c1cnn2c(Nc3ccc(F)cc3C)c(C(=O)N3CCC(c4ccccc4)CC3)cnc12` [a-64, N-[7-(4-Fluoro-2-methylphenylamino)-6-(4-phenylpiperidine-1-carbonyl)pyrazolo[1,5-a]pyrimidin-3-ylsulfonyl]-2-methoxyacetamide], with 94.2%.
In the case of `Cc1cc(F)ccc1Nc1c(C(=O)N2CCC(c3ccccc3)CC2)cnc2c(S(=O)(=O)NC(=O)CO)cnn12` [a-65, N-[7-(4-Fluoro-2-methylphenylamino)-6-(4-phenylpiperidine-1-carbonyl)pyrazolo[1,5-a]pyrimidin-3-ylsulfonyl]-2-hydroxyacetamide], the inhibition at 0.1 µM was above 100%.
The same measure, in the same setting: then `Cc1cc(F)ccc1Nc1c(C(=O)N2CCC(c3ccccc3)CC2)cnc2c(S(=O)(=O)NC(=O)Nc3ccccc3)cnn12` [a-67, 7-(4-Fluoro-2-methylphenylamino)-N-phenylcarbamoyl-6-(4-phenylpiperidine-1-carbonyl)pyrazolo[1,5-a]pyrimidine-3-sulfonamide], with 63.7%.
`Cc1cc(F)ccc1Nc1c(C(=O)N2CCC(c3ccccc3)CC2)cnc2c(S(=O)(=O)NC(=O)N3CCOCC3)cnn12` [a-68, N-[7-(4-Fluoro-2-methylphenylamino)-6-(4-phenylpiperidine-1-carbonyl)pyrazolo[1,5-a]pyrimidin-3-ylsulfonyl]morpholine-4-carboxamide]: the inhibition at 0.1 µM stood at 85.9%.
Same read-out and setting: then `CCNC(=S)NS(=O)(=O)c1cnn2c(Nc3ccc(F)cc3C)c(C(=O)N3CCC(c4ccccc4)CC3)cnc12` [a-69, N-Ethylcarbamothioyl-7-(4-fluoro-2-methylphenylamino)-6-(4-phenylpiperidine-1-carbonyl)pyrazolo[1,5-a]pyrimidine-3-sulfonamide], with 81.8%; and `Cc1cc(F)ccc1Nc1c(C(=O)N2CCC(c3ccccc3)CC2)cnc2c(S(=O)(=O)NC(=O)C(F)(F)F)cnn12` [a-70, 2,2,2-Trifluoro-N-[7-(4-fluoro-2-methylphenylamino)-6-(4-phenylpiperidine-1-carbonyl)pyrazolo[1,5-a]pyrimidin-3-ylsulfonyl]acetamide], with above 100%; and `Cc1cc(F)ccc1Nc1c(C(=O)N2CCC(c3ccccc3)CC2)cnc2c(S(=O)(=O)NS(C)(=O)=O)cnn12` [a-71, 7-(4-Fluoro-2-methylphenylamino)-N-methylsulfonyl-6-(4-phenylpiperidine-1-carbonyl)pyrazolo[1,5-a]pyrimidine-3-sulfonamide], with 88.8%.
Still for that read-out and setting: then `COC(=O)NS(=O)(=O)c1cnn2c(Nc3ccc(F)cc3C)c(C(=O)N3CCC(c4ccccc4)CC3)cnc12` [a-72, Methyl 7-(4-fluoro-2-methylphenylamino)-6-(4-phenylpiperidine-1-carbonyl)pyrazolo[1,5-a]pyrimidin-3-ylsulfonylcarbamate], with 90.7%; and `COC(=O)NS(=O)(=O)c1cnn2c(Nc3cc(C)ccc3C)c(C(=O)N3CCC(c4ccccc4)CC3)cnc12` [a-74, Methyl 7-(2,5-dimethylphenylamino)-6-(4-phenylpiperidine-1-carbonyl)pyrazolo[1,5-a]pyrimidin-3-ylsulfonylcarbamate], with above 100%.
Regarding `O=C(NS(=O)(=O)c1cnn2c(NCc3ccccc3)c(C(=O)N3CCC(c4ccccc4)CC3)cnc12)C1CC1` [a-75, N-[7-Benzylamino-6-(4-phenylpiperidine-1-carbonyl)pyrazolo[1,5-a]pyrimidin-3-ylsulfonyl]cyclopropanecarboxamide], the inhibition at 0.1 µM is 89.4%.
Same read-out and setting: then `CCNC(=O)NS(=O)(=O)c1cnn2c(NCc3ccccc3)c(C(=O)N3CCC(c4ccccc4)CC3)cnc12` [a-76, 7-Benzylamino-N-ethylcarbamoyl-6-(4-phenylpiperidine-1-carbonyl)pyrazolo[1,5-a]pyrimidine-3-sulfonamide], with 95.1%; and `Cc1ccc(Cl)c(Nc2c(C(=O)N3CCC(c4ccc(F)cc4)CC3)cnc3c(S(=O)(=O)NC(N)=O)cnn23)c1` [a-77, N-Carbamoyl-7-(2-chloro-5-methylphenylamino)-6-[4-(4-fluorophenyl)piperidine-1-carbonyl]pyrazolo[1,5-a]pyrimidine-3-sulfonamide], with above 100%.
As to `O=C(c1cnc2c(S(=O)(=O)Nc3nncs3)cnn2c1Nc1cc(Cl)ccc1Cl)N1CCC(c2ccc(F)cc2)CC1` [a-78, 7-(2,5-Dichlorophenylamino)-6-[4-(4-fluorophenyl)piperidine-1-carbonyl]-N-(1,3,4-thiadiazol-2-yl)pyrazolo[1,5-a]pyrimidine-3-sulfonamide], the inhibition at 0.1 µM was above 100%.
Still for that read-out and setting: next, `O=C(c1cnc2c(S(=O)(=O)Nc3cccnn3)cnn2c1Nc1cc(Cl)ccc1Cl)N1CCC(c2ccc(F)cc2)CC1` [a-79, 7-(2,5-Dichlorophenylamino)-6-[4-(4-fluorophenyl)piperidine-1-carbonyl]-N-(pyridazin-3-yl)pyrazolo[1,5-a]pyrimidine-3-sulfonamide]: above 100%; `O=C(c1cnc2c(S(=O)(=O)Nc3ncccn3)cnn2c1Nc1cc(Cl)ccc1Cl)N1CCC(c2ccc(F)cc2)CC1` [a-80, 7-(2,5-Dichlorophenylamino)-6-[4-(4-fluorophenyl)piperidine-1-carbonyl]-N-(pyrimidin-2-yl)pyrazolo[1,5-a]pyrimidine-3-sulfonamide]: above 100%; `Cc1ccc(Cl)c(Nc2c(C(=O)N3CCC4(CC3)OCc3ccccc34)cnc3c(S(=O)(=O)NC(=O)NC4CCOCC4)cnn23)c1` [a-81, 7-(2-Chloro-5-methylphenylamino)-6-[3H-spiro(isobenzofuran-1,4′-piperidine)-1′-carbonyl]-N-(tetrahydro-2H-pyran-4-ylcarbamoyl)pyrazolo[1,5-a]pyrimidine-3-sulfonamide]: 62.3%.

Values taken from patent US20140221340A1 (KYOWA HAKKO KIRIN CO., LTD., priority 2011, published 2014).
